# Values quoted from earlier work in patent US6461848B1, “Human heparanase polypeptide and cDNA” (Novartis AG, priority 1998, dated 2002).
# What was measured:
# [1] = system: murin melanoma
# [2] = molecular target: T1, murin melanoma heparanase (Mus musculus, UniProt Q6YGZ1)
# T1 construct: host or cells: murine melanoma
# T1 sequence (Q6YGZ1 28-535): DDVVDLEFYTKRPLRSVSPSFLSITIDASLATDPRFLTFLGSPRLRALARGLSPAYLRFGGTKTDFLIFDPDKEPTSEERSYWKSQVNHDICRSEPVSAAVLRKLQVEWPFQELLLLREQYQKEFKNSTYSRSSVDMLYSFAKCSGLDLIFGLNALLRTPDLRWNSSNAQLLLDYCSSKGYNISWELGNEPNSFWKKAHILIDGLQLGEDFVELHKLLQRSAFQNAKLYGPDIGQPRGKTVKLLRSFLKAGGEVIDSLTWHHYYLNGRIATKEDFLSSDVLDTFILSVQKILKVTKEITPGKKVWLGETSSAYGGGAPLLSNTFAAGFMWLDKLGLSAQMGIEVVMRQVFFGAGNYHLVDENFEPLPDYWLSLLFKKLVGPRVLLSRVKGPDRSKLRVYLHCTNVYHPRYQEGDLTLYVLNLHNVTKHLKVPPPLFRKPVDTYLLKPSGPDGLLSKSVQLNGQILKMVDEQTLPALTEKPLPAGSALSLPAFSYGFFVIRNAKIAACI
# [3] = molecular target: T2, heparanase (Mus musculus, UniProt Q6YGZ1)
# T2 sequence (Q6YGZ1 28-535): T1 sequence (Q6YGZ1 28-535)
# [4] = molecular target: T3, heparanase (Homo sapiens, UniProt Q9Y251)
# T3 sequence (Q9Y251 36-543): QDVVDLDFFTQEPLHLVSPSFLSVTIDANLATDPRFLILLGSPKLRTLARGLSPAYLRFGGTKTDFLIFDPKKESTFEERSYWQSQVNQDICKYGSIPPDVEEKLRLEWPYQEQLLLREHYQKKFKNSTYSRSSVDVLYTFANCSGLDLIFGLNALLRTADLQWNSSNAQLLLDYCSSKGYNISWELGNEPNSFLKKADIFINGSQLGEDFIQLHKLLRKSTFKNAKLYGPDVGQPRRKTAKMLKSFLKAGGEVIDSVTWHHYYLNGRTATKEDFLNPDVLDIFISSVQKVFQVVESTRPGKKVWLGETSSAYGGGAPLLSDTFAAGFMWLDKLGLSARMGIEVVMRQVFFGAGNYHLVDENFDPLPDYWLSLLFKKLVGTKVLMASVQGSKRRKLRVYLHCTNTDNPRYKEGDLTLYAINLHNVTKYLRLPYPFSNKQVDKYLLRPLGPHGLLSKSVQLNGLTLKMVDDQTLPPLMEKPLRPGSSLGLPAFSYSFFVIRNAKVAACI
# [5] = system: human pancreatic (Ca-Pan-2) adenocarcinoma; conditions: subcutaneous Ca-Pan-2 adenocarcinoma, nude mice
# [6] = system: B16-F10 melanoma; conditions: C57BL/6N mice, B16-F10 experimental lung metastasis
compound,measurement,setting,value
Cc1ccc(C(=O)Nc2ccc(S(=O)(=O)O)c3cc(S(=O)(=O)O)cc(S(=O)(=O)O)c23)cc1NC(=O)c1cccc(NC(=O)Nc2cccc(C(=O)Nc3cc(C(=O)Nc4ccc(S(=O)(=O)O)c5cc(S(=O)(=O)O)cc(S(=O)(=O)O)c45)ccc3C)c2)c1 [Suramin],inhibition of melanoma invasion,[1],strongly inhibit
same,inhibition of murin melanoma heparanase,[2],strongly inhibit
heparin,inhibition of heparanase,[3],inhibited
"O=C(O)[C@@H](O)[C@H]1OC(=O)[C@H](O)[C@H]1O [1,4-saccharolactone]",inhibition of heparanase,[3],not
"2,3-O-desulfated heparin",inhibition of heparanase activity,[4],inhibit
same,inhibition of tumor growth,[5],inhibit
same,survival times,[6],prolonged
